Assay results as given in patent publication US20070065443A1, “Fructoseamine 3 kinase and the formation of collagen and elastin” (priority 2004, published 2007).
“And” between values parts separate entries of the source, which are not always exact repeats. Identical values can stand only once.

Tests used:
[1] = target: T1, fructoseamine kinase (Homo sapiens, UniProt Q9H479); test: Fructoseamine kinase inhibition (Ki); type: biochemical
T1 sequence (Q9H479 1-309): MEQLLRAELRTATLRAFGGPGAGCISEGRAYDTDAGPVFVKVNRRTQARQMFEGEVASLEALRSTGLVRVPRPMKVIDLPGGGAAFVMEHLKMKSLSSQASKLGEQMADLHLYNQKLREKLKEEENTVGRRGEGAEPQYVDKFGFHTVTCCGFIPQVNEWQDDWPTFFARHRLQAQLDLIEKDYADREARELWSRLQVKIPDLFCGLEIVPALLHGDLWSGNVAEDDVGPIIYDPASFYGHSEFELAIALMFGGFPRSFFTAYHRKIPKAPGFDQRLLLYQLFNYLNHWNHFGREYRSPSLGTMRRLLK

[2] = Distribution of DYN-12 in plasma, urine and kidney; type: in vivo, rat; conditions: individual rats, 100 micromols i.p.
Protocol: Rats were injected intraperitoneally with 1 ml of a 100 mM solution of DYN-12 (100 micromols). Urine was collected for 1 hr, and DYN-12 levels measured. After 1 hr the animals were sacrificed and DYN-12 levels measured in both plasma and kidney tissue.

[3] = Locus of 3-O-methyl sorbitollysine uptake in vivo (tissue, urine, plasma); design: species or system rat
Protocol: […] Urine was collected for 3 hours, after which the rats were sacrificed. The tissues to be analyzed were removed and freeze clamped in liquid nitrogen. Perchloric acid extracts of the tissues were used for metabolite analysis. The tissues examined were taken from the brain, heart, muscle, sciatic nerve, spleen, pancreas, liver, and kidney. Plasma was also analyzed.

[4] = tested on: 3DG; test: Plasma 3DG levels in diabetic and non-diabetic rats treated with 3-O-methyl sorbitollysine; type: in vivo, rat; conditions: for plasma 3DG level: 50 mg/kg body weight injections, within one week
Protocol: A cohort of twelve diabetic rats was divided into two groups of six. The first group received saline-only injections, and the second received injections of 3-O-methyl sorbitollysine (50 mg/kg body weight) in saline solution. The same procedure was conducted on a cohort of twelve non-diabetic rats.

[5] = tested on: STZ-diabetic rats; test: Skin elasticity measurement (vacuum pull to displace skin); type: in vivo, rat; conditions: 50 mg/kg daily s.c. for eight weeks
Protocol: Experiments were performed to determine the effects of DYN 12 on the loss of skin elasticity associated with diabetes. To this end, two groups of STZ-diabetic rats and two groups of normal rats were subjected to treatment with DYN 12 or saline. One 'group of STZ-diabetic rats (n=9) received daily subcutaneous injections of DYN 12 at 50 mg/kg for eight weeks, as did one group of normal rats (n=6). A group of control diabetic rats (n=10) and a group of normal rats (n=6) received saline instead of DYN 12. One rat was removed from the diabetic DYN 12 group after 2 weeks because its blood glucose readings were inconsistent (too low) with other diabetic rats.
A non-invasive procedure based on CyberDERM, Inc. technology utilizing a skin elasticity measurement device was used to test the effects of DYN 12 treatment on skin elasticity. The procedure provides for non-invasive measurement of skin elasticity based upon the amount of vacuum pull required to displace skin. A suction cup probe is adhered to an area of shaved skin in order to form an airtight seal. Then, a vacuum is applied to the area of the skin inside the suction cup until the skin is displaced past a sensor located inside the probe. Accordingly, the more pressure that is required to displace the skin, the less elastic the skin is.

Ki [1]: 2 to 3 mM
presence of the compound in plasma ([3]; 3 hours after i.p. injection): plasma did not
Compound: COC(C(O)CNCCCCC(N)C(=O)O)C(O)C(O)CO (stereo not drawn) [DYN 12, 3-O-methylsorbitollysine]
DYN-12 concentration Kidney ([2]; 1 hr): 6.54 µmol/g and 9.19 µmol/g and 8.21 µmol/g
DYN-12 concentration Plasma ([2]; 1 hr): 0.335 µmol/mL and 0.269 µmol/mL and 0.296 µmol/mL
DYN-12 concentration Urine ([2]; urine collected 1 hr): 41.99 µmol/mL and 17.81 µmol/mL and 15.03 µmol/mL
tissue extracts containing the compound ([3]; brain, heart, muscle, sciatic nerve, spleen, pancreas, liver, kidney examined, 3 hours): only tissue extract found to contain 3-O-methyl sorbitollysine was that of the kidney
nmols 3OMeSL in kidneys ([3]; individual rats, 13500 nmols i.p., 3 hours, listed as 3OMeSL): 8155 nmols and 3880 nmols and 10071 nmols and 6582 nmols and 5373 nmols and 4833 nmols
nmols 3OmeSL in urine ([3]; individual rats, 13500 nmols i.p., urine collected 3 hours, listed as 3OMeSL): 4200 nmols and 1355 nmols and 2940 nmols and 1675 nmols and 1778 nmols and 2360 nmols
% 3OMeSL recovered (of injected dose, urine and kidney) ([3]; individual rats, 3 hours after i.p. injection, listed as 3OMeSL): 91.5% and 38.8% and 96.4% and 61.2% and 53.0% and 53.3%
total 3OMeSL recovered ([3]; individual rats, urine plus kidneys, 3 hours, listed as 3OMeSL): 12355 nmols and 5235 nmols and 13011 nmols and 8257 nmols and 7151 nmols and 7193 nmols
% Reduction of plasma 3DG vs saline only ([4]; diabetic rats): 53%
plasma 3DG level ([4]; diabetic rats): 0.44 ± 0.10 µM
% Reduction of plasma 3DG vs saline only ([4]; non-diabetic rats): 43%
plasma 3DG level ([4]; non-diabetic rats): 0.13 ± 0.02 µM
pressure needed to displace the skin [5]: 3.2+/−1.2 kPA
